Reference: the supplement of paper PMC11061612

Assays:
Test in all cases: Bliss excess, mean over the matrix (fraction); higher = more synergy
8-MG-BA (Glioblastoma) = test system: 8-MG-BA (Glioblastoma)
Method in brief: (§1)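 Bliss excess equals the observed combination effect minus the expected value EA + EB − EA·EB, where EA and EB are the effects of each agent alone. Combination Emax is the second-highest inhibition within the matrix. Inhibition was scaled from CellTiter-Glo 2.0 luminescence, with 0 set by vehicle wells and 1 by blank wells, after 72 hours of two-drug dosing of cells plated in 1536-well plates.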

A498 (Kidney Carcinoma) = test system: A498 (Kidney Carcinoma)
Method in brief: as §1

ARH-77 (Non-Cancerous) = test system: ARH-77 (Non-Cancerous)
Method in brief: as §1

[1] = test system: CAL-29 (Bladder Carcinoma)
Method in brief: as §1

CAS-1 (Glioblastoma) = test system: CAS-1 (Glioblastoma)
Method in brief: as §1

[2] = test system: COR-L311 (Small Cell Lung Carcinoma)
Method in brief: as §1

FU97 (Gastric Carcinoma) = test system: FU97 (Gastric Carcinoma)
Method in brief: as §1

GI-ME-N (Neuroblastoma) = test system: GI-ME-N (Neuroblastoma)
Method in brief: as §1

[3] = test system: HCC1954 (Breast Carcinoma)
Method in brief: as §1

IGR-37 (Melanoma) = test system: IGR-37 (Melanoma)
Method in brief: as §1

[4] = test system: MDST8 (Colorectal Carcinoma)
Method in brief: as §1

[5] = test system: NCI-H1581 (Non-Small Cell Lung Carcinoma)
Method in brief: as §1

NCI-H2591 (Mesothelioma) = test system: NCI-H2591 (Mesothelioma)
Method in brief: as §1

[6] = test system: NCI-H64 (Small Cell Lung Carcinoma)
Method in brief: as §1

NY (Osteosarcoma) = test system: NY (Osteosarcoma)
Method in brief: as §1

[7] = test system: ONS-76 (Other Solid Carcinomas)
Method in brief: as §1

PA-1 (Ovarian Carcinoma) = test system: PA-1 (Ovarian Carcinoma)
Method in brief: as §1

[8] = test system: PANC-10-05 (Pancreatic Carcinoma)
Method in brief: as §1

[9] = test system: TT2609-C02 (Thyroid Gland Carcinoma)
Method in brief: as §1

[10] = test system: VCaP (Prostate Carcinoma)
Method in brief: as §1

Row | SMILES | Bliss excess (8-MG-BA (Glioblastoma)) | Bliss excess (A498 (Kidney Carcinoma)) | Bliss excess (ARH-77 (Non-Cancerous)) | Bliss excess [1] | Bliss excess (CAS-1 (Glioblastoma)) | Bliss excess [2] | Bliss excess (FU97 (Gastric Carcinoma)) | Bliss excess (GI-ME-N (Neuroblastoma)) | Bliss excess [3] | Bliss excess (IGR-37 (Melanoma)) | Bliss excess [4] | Bliss excess [5] | Bliss excess (NCI-H2591 (Mesothelioma)) | Bliss excess [6] | Bliss excess (NY (Osteosarcoma)) | Bliss excess [7] | Bliss excess (PA-1 (Ovarian Carcinoma)) | Bliss excess [8] | Bliss excess [9] | Bliss excess [10]
1 | Cc1cc2ncnn2cc1Nc1ncc2c(n1)n(C1CCOCC1)c(=O)n2C [AZD7648] + CCN(CCO)CCCOc1ccc2c(Nc3cc(CC(=O)Nc4cccc(F)c4)[nH]n3)ncnc2c1 [AZD2811] (first compound max 10 µM, 7x7, partner max 1 µM) | 0.0664 | -0.0049 | 0.0348 | 0.0545 | 0.0895 | -0.0806 | -0.0667 | 0.0032 | 0.0561 | 0.0315 | 0.0619 | 0.0122 | 0.0506 | 0.0392 | 0.0076 | 0.0443 | 0.0239 | -0.0341 | 0.0149 | 0.0023
2 | Cc1cc2ncnn2cc1Nc1ncc2c(n1)n(C1CCOCC1)c(=O)n2C [AZD7648] + CN(C)CCCOc1ccc(-c2ccc3ncc4c(c3c2)n(C2CCOCC2)c(=O)n4C)cn1 [AZD0156] (first compound max 10 µM, 7x7, partner max 1 µM) | 0.029 | -0.0212 | -0.049 | -0.0282 | -0.0246 | -0.054 | -0.0915 | 0.0015 | 0.0111 | 0.0285 | 0.0012 | 0.0088 | -0.0089 | -0.0367 | -0.0172 | -0.0014 | -0.0117 | -0.0059 | -0.0188 | 0.0154
3 | Cc1cc2ncnn2cc1Nc1ncc2c(n1)n(C1CCOCC1)c(=O)n2C [AZD7648] + C[C@@H]1COCCN1C2=NC(=NC(=C2)C3(CC3)[S@](=N)(=O)C)C4=C5C=CNC5=NC=C4 [AZD6738] (first compound max 10 µM, 7x7, partner max 10 µM) | 0.0602 | 0.0313 | -0.0463 | -0.012 | 0.0024 | -0.016 | -0.0017 | 0.0346 | 0.0568 | -0.0228 | -0.0085 | 0.0217 | 0.04 | -0.0003 | -0.0052 | -0.0282 | -0.0509 | 0.0487 | -0.0004 | 0.0437
4 | Cc1cc2ncnn2cc1Nc1ncc2c(n1)n(C1CCOCC1)c(=O)n2C [AZD7648] + O=C(c1cc(Cc2n[nH]c(=O)c3ccccc23)ccc1F)N1CCN(C(=O)C2CC2)CC1 [Olaparib] (first compound max 10 µM, 7x7, partner max 10 µM) | -0.0184 | -0.0268 | 0.0393 | -0.0288 | -0.0909 | -0.126 | -0.0879 | -0.0382 | -0.045 | -0.057 | -0.043 | -0.0319 | -0.0403 | -0.0384 | -0.0311 | -0.0419 | -0.0072 | -0.0426 | -0.0276 | -0.0336
5 | NC1(C(=O)N[C@@H](CCO)c2ccc(Cl)cc2)CCN(c2ncnc3[nH]ccc23)CC1 [Capivasertib] + CC(=O)c1c(C)c2cnc(Nc3ccc(N4CCNCC4)cn3)nc2n(C2CCCC2)c1=O [Palbociclib] (first compound max 10 µM, 7x7, partner max 10 µM) | -0.0501 | -0.0294 | -0.0211 | 0.0198 | -0.044 | -0.0489 | -0.0168 | -0.0823 | -0.0292 | -0.0344 | -0.0378 | 0.0213 | -0.0717 | -0.0332 | -0.0134 | 0.027 | 0.0288 | -0.0526 | -0.0398 | 0.0119
6 | NC1(C(=O)N[C@@H](CCO)c2ccc(Cl)cc2)CCN(c2ncnc3[nH]ccc23)CC1 [Capivasertib] + CC(C)n1c(=O)n(C)c2cnc3cc(F)c(-c4ccc(OCCCN5CCCCC5)nc4)cc3c21 [AZD1390] (first compound max 10 µM, 7x7, partner max 0.3 µM) | -0.0557 | -0.0632 | -0.0509 | -0.0702 | -0.0671 | -0.0564 | -0.0099 | -0.0993 | -0.056 | -0.0528 | -0.0327 | -0.0784 | -0.0804 | -0.0284 | -0.0643 | -0.0894 | -0.102 | -0.101 | -0.0609 | -0.0389
7 | NC1(C(=O)N[C@@H](CCO)c2ccc(Cl)cc2)CCN(c2ncnc3[nH]ccc23)CC1 [Capivasertib] + CCN(CCO)CCCOc1ccc2c(Nc3cc(CC(=O)Nc4cccc(F)c4)[nH]n3)ncnc2c1 [AZD2811] (first compound max 10 µM, 7x7, partner max 1 µM) | 0.0289 | -0.0548 | -0.0156 | -0.0319 | -0.0688 | -0.0461 | -0.004 | -0.0557 | 0.0073 | 0.0123 | 0.011 | -0.11 | -0.0025 | 0.0427 | -0.0531 | -0.0191 | 0.0219 | -0.0943 | -0.0075 | 0.0328
8 | NC1(C(=O)N[C@@H](CCO)c2ccc(Cl)cc2)CCN(c2ncnc3[nH]ccc23)CC1 [Capivasertib] + COc1nnc2ccc(N3CCC(c4ccc(OCCN5CCN(C)C(=O)[C@H]5C)cc4)CC3)nn12 [AZD5153] (first compound max 10 µM, 7x7, partner max 1 µM) | -0.0338 | 0.0826 | -0.0253 | 0.0937 | 0.0268 | -0.0089 | -0.0154 | -0.0309 | 0.0641 | 0.0011 | 0.105 | -0.0303 | 0.0183 | -0.0011 | -0.0649 | 0.0234 | -0.0386 | -0.0114 | -0.0366 | 0.0181
9 | NC1(C(=O)N[C@@H](CCO)c2ccc(Cl)cc2)CCN(c2ncnc3[nH]ccc23)CC1 [Capivasertib] + C[C@@H]1COCCN1C2=NC(=NC(=C2)C3(CC3)[S@](=N)(=O)C)C4=C5C=CNC5=NC=C4 [AZD6738] (first compound max 10 µM, 7x7, partner max 10 µM) | -0.004 | 0.0375 | -0.0375 | -0.069 | -0.0706 | -0.0213 | -0.0176 | -0.0269 | 0.0105 | 0.0138 | -0.0277 | -0.0363 | 0.0021 | -0.0591 | -0.0287 | -0.0636 | -0.0938 | -0.0946 | -0.0158 | -0.0179
10 | NC1(C(=O)N[C@@H](CCO)c2ccc(Cl)cc2)CCN(c2ncnc3[nH]ccc23)CC1 [Capivasertib] + Cn1cnc2c(F)c(Nc3ccc(Br)cc3Cl)c(C(=O)NOCCO)cc21 [Selumetinib] (first compound max 10 µM, 7x7, partner max 10 µM) | 0.0362 | -0.0108 | 0.0614 | -0.0058 | -0.0798 | -0.0422 | 0.0653 | -0.0544 | 0.0405 | -0.0258 | 0.0211 | 0.0371 | -0.0052 | -0.0027 | -0.0161 | 0.0914 | -0.0114 | 0.0147 | -0.0213 | -0.0249
11 | Cc1nc(Nc2ncc(C(=O)Nc3c(C)cccc3Cl)s2)cc(N2CCN(CCO)CC2)n1 [Dasatinib] + CC(=O)Nc1cccc(-n2c(=O)n(C3CC3)c(=O)c3c(Nc4ccc(I)cc4F)n(C)c(=O)c(C)c32)c1 [Trametinib] (first compound max 2 µM, 7x7, partner max 1 µM) | 0.0219 | -0.143 | -0.0311 | 0.0133 | -0.107 | -0.0295 | 0.0039 | -0.0849 | 0.0318 | -0.121 | -0.106 | -0.0416 | -0.0757 | -0.0498 | 0.034 | -0.0206 | 0.013 | 0.0735 | 0.0898 | -0.0396
12 | COc1cccc2c1C(=O)c1c(O)c3c(c(O)c1C2=O)C[C@@](O)(C(=O)CO)C[C@@H]3O[C@H]1C[C@H](N)[C@H](O)[C@H](C)O1 [Doxorubicin] + Cc1cc2ncnn2cc1Nc1ncc2c(n1)n(C1CCOCC1)c(=O)n2C [AZD7648] (first compound max 1 µM, 7x7, partner max 10 µM) | 0.0675 | 0.0163 | 0.0783 | 0.0489 | 0.105 | 0.0893 | -0.0094 | 0.0207 | 0.0849 | 0.0631 | 0.0756 | 0.0529 | 0.0556 | 0.0063 | 0.0578 | 0.0314 | 0.0617 | -0.0557 | 0.0486 | 0.0275
13 | COc1cc2ncnc(Nc3ccc(F)c(Cl)c3)c2cc1OCCCN1CCOCC1 [Gefitinib] + CC(C)n1c(=O)n(C)c2cnc3cc(F)c(-c4ccc(OCCCN5CCCCC5)nc4)cc3c21 [AZD1390] (first compound max 10 µM, 7x7, partner max 0.3 µM) | -0.0604 | -0.11 | -0.0785 | -0.104 | -0.0603 | -0.0545 | -0.0177 | -0.0827 | -0.0366 | -0.0865 | -0.0584 | -0.0457 | -0.0801 | -0.022 | -0.0355 | -0.0386 | -0.0949 | -0.0835 | -0.0716 | -0.0429
14 | CS(=O)(=O)CCNCc1ccc(-c2ccc3ncnc(Nc4ccc(OCc5cccc(F)c5)c(Cl)c4)c3c2)o1 [Lapatinib] + C[C@@H](Oc1cc(-c2cnn(C3CCNCC3)c2)cnc1N)c1c(Cl)ccc(F)c1Cl [Crizotinib] (first compound max 10 µM, 7x7, partner max 10 µM) | -0.0365 | -0.0592 | -0.0445 | 0.0215 | -0.0634 | -0.0024 | -0.0144 | -0.0505 | 0.0048 | -0.0432 | -0.0095 | 0.0208 | -0.0493 | -0.0564 | -0.0118 | -0.0667 | 0.0128 | -0.109 | -0.023 | -0.0653
15 | CC(=O)c1c(C)c2cnc(Nc3ccc(N4CCNCC4)cn3)nc2n(C2CCCC2)c1=O [Palbociclib] + CC1(C)CCC(CN2CCN(c3ccc(C(=O)NS(=O)(=O)c4ccc(NCC5CCOCC5)c([N+](=O)[O-])c4)c(Oc4cnc5[nH]ccc5c4)c3)CC2)=C(c2ccc(Cl)cc2)C1 [Venetoclax] (first compound max 10 µM, 7x7, partner max 1 µM) | 0.0049 | -0.021 | 0.0762 | -0.0523 | -0.009 | -0.0186 | -0.0281 | -0.0514 | -0.0424 | -0.0528 | -0.0059 | -0.029 | 0.0045 | -0.0185 | -0.0479 | -0.0115 | 0.0133 | -0.107 | 0.0069 | -0.0076
